# Source: patent US7732467B2, “Method for reducing amyloid deposition, amyloid neurotoxicity and microgliosis” (Alzheimer's Institute of America, Inc., priority 2003, dated 2010)
# How the values were obtained:
# [1] = tested on: N9 murine microglial cells; test: LPS-induced microglial activation in vitro, TNF-α production by ELISA; format: cell-based, mouse
# Description: Microglial activation is determined by TNF-α production (pg/ml) measured by ELISA;
# N9 murine micoglial cells are well characterized scavenger murine microglial clones derived from embryonic mouse brain. The extent of microglial activation was determined by TNF-α production (pg/ml) measured by ELISA.
# [2] = tested on: human neuronal progenitor cells (HNPC); test: Aβ neurotoxicity, LDH release from cells treated with pre-aggregated Aβ1-40; format: cell-based; conditions: 100 nM nilvadipine along with 30 μM AgAβ, three days
# Description: Neurotoxicity is assessed by measuring the amount of lactic dehydrogenase (LDH) released from cells;
# HNPC cells differentiate into neurons readily upon treatment with cyclic AMP. Cyclic AMP (1 mM) (Sigma) was added to the culture medium and the HNPC cells were incubated at 37° C. for 48 hours or more under serum free conditions. […] Neurotoxicity was assessed by measuring the amount of lactic dehydrogenase (LDH; an intracellular enzyme found in all cells) released from the cells.
# [3] = tested on: human glioblastoma cells transfected with APPsw; test: APP processing, Aβ1-40 production in culture medium by ELISA; format: cell-based
# Description: Production of Aβ1-40 in the culture medium was measured by ELISA.
# [4] = tested on: plasma Aβ in TgPS/APPsw mice; test: Plasma Aβ levels in TgPS/APPsw mice, human Aβ1-40 ELISA; format: in vivo, mouse; conditions: 1.5 mg/kg I.P. every day for three and one half weeks; 2 year old TgPS/APPsw mice
# Description: Following this treatment, 100 μl of blood were collected from the tail vein of the animals using EDTA (4%) as an anticoagulant. Blood samples were centrifuged at 4000 g for 1 min and the plasma was collected and diluted four times before being assayed for human Aβ1-40 using a commercially available human Aβ1-40 ELISA (Biosource, CA).
smiles,measurement,setting,value
"COC(=O)C1=C(C#N)NC(C)=C(C(=O)OC(C)C)C1c1cccc([N+](=O)[O-])c1 (stereo not drawn) [nilvadipine, isopropyl-3-methyl-2-cyano-1,4-dihydro-6-methyl-4-(m-nitrophenyl)-3,5-pyridine-dicarboxylate]",TNF-α production,"[1]; 50 nM nilvadipine, no LPS, N9 cells",about 40 pg/ml
same,TNF-α production,"[1]; 1 μg/ml LPS plus 50 nM nilvadipine, 24 hours, N9 cells (LPS alone about 820 pg/ml)",about 670 pg/ml
same,TNF-α production,"[1]; LPS plus 500 nM nilvadipine, 24 hours, N9 cells (LPS alone about 820 pg/ml)",about 610 pg/ml
same,decrease in LDH release,[2],about 44%
same,reduction of Aβ1-40 production,"[3]; 50 nM, 24 hours",about 9%
same,reduction of Aβ1-40 production,"[3]; 50 nM, 48 hours",about 18%
same,reduction of Aβ1-40 production,"[3]; 250 nM, 24 hours",about 15%
same,reduction of Aβ1-40 production,"[3]; 250 nM, 48 hours",about 5%
same,increase in plasma levels of Aβ compared to control animals,[4],42%
